Data on eleven compounds can be found in ChEMBL document CHEMBL1145244, “In vitro advanced antimycobacterial screening of isoniazid-related hydrazones, hydrazides and cyanoboranes: part 14” (2005).

By EC90 is commonly meant the point of the concentration-response curve where the effect stands at 90%. Read a low EC90 as an effect from little substance. For orientation: EC99 means the concentration needed for an effect of 99%. Low values mean greater potency, high ones weaker potency.

In brackets after ≈: the same amount, converted by molar mass.

For assay [1], the system named is Vero. In words: Selective index of IC50 of Vero Cells to that of MIC of Mycobacterium tuberculosis H37Rv. In kind it is functional, Chlorocebus sabaeus.
Assay [2] deals with Mycobacterium tuberculosis. Kind of assay: Effective concentration required for the reduction in colony forming units (CFU) at seven days compared to drug free controls. In kind it is functional. The note with it: 168 h.
The subject of assay [3] is Mycobacterium tuberculosis. In words: In vitro antimycobacterial activity against Mycobacterium tuberculosis Erdman in broth cluture infected with macrophages. The format is functional.
For assay [4], the system named is Mycobacterium tuberculosis. Kind of assay: In vitro antimycobacterial activity against Mycobacterium tuberculosis H37Rv in broth cluture infected with macrophages. The format is functional.
The subject of assay [5] is Mycobacterium tuberculosis. In words: Ratio of effective concentration required for the reduction in colony forming units (CFU) at seven days compared to drug free controls to that of MIC against Mycobacterium tuberculosis Erdman. In kind it is functional.
Assay [6] has as its system Mycobacterium tuberculosis. In words: In vitro antimycobacterial activity against Mycobacterium tuberculosis H37Rv in broth cluture infected with macrophages; Range 0.025-0.05. In kind it is functional.

Turning to `O=C(N/N=C/c1ccc(C(F)(F)F)cc1)c1ccncc1`, the Selective index in assay [1] is greater than 1250. Besides, in assay [2], the EC90 was 0.04 µg/mL (≈ 0.136 µM) and it took 0.09 µg/mL to reach the 99% level (EC99). In addition, in assay [3], the MIC is 0.1 µg/mL (≈ 0.341 µM). In assay [4], the MBC amounted to 0.2 µg/mL (≈ 0.682 µM) and the MIC stood at 0.05 µg/mL (≈ 0.171 µM). Moreover, in assay [5], the Ratio was determined as 0.4.

As to `O=C(N/N=C/C(F)(F)F)c1ccncc1`, in assay [1], the Selective index amounted to 302. In assay [2], the concentration for an effect of 90% (EC90) was 0.05 µg/mL (≈ 0.23 µM) and the EC99 worked out at 0.25 µg/mL. Further, in assay [4], the MIC was 0.05 µg/mL (≈ 0.23 µM).

On to `C/C(=N\NC(=O)c1ccncc1)c1ccc(F)cc1`, for which the Selective index in assay [1] is listed as greater than 78. In assay [2], this compound registered an EC90 of 1.84 µg/mL (≈ 7.15 µM) and an EC99 of 5.25 µg/mL. This compound displayed an MIC in assay [3] of 1.56 µg/mL (≈ 6.06 µM). The MIC in assay [4] stood at 1.6 µg/mL (≈ 6.22 µM). For the same compound, the Ratio in assay [5] was 1.18.

As to `N#CC[n+]1ccc(C(=O)NNCc2ccccc2)cc1`, in assay [2], the 90% effect level (EC90) was put at 0.116 µg/mL and the 99% effect level (EC99) was put at 1.49 µg/mL. For the same compound, the MIC in assay [3] stood at 12.5 µg/mL. In assay [4], the MBC was found to be 1.56 µg/mL and the MIC was determined as 0.8 µg/mL. For the same compound, the Ratio in assay [5] is 0.0093.

As to `NNC(=O)c1ccncc1` [ISONIAZID], the Selective index in assay [1] is greater than 20000. This compound also yielded an MIC in assay [6] of 0.05 µg/mL (≈ 0.365 µM). Further, in assay [2], the EC90 is 0.03 µg/mL (≈ 0.219 µM) and the EC99 turned out to be 0.42 µg/mL. Besides, the MBC in assay [4] amounted to 0.1 µg/mL (≈ 0.729 µM).

`C/C=N/NC(=O)c1ccncc1`: the Selective index in assay [1] is greater than 2500. In addition, in assay [2], the EC90 worked out at 0.03 µg/mL (≈ 0.184 µM) and the EC99 turned out to be 0.08 µg/mL. Besides, the MIC in assay [3] came to 0.025 µg/mL (≈ 0.153 µM). In assay [4], this compound gave an MBC of 0.05 µg/mL (≈ 0.306 µM) and an MIC of 0.025 µg/mL (≈ 0.153 µM). Besides, the Ratio in assay [5] is on record as 1.2.

On to `CC(NNC(=O)c1ccncc1)c1ccccc1F` (stereo not drawn), for which the Selective index in assay [1] worked out at 78.12. For the same compound, it took 2.54 µg/mL (≈ 9.8 µM) to reach the 90% level in assay [2] (EC90). This compound showed a 99% effect concentration (EC99) in assay [2] of 6.06 µg/mL. The MIC in assay [3] is 3.13 µg/mL (≈ 12.1 µM); in assay [4], 1.6 µg/mL (≈ 6.17 µM). For the same compound, in assay [5], the Ratio was found to be 0.81.

As for `N#CC[n+]1ccc(C(=O)NNCC(F)(F)F)cc1`, in assay [1], the Selective index is 122. For the same compound, in assay [2], the 90% effect level (EC90) was put at 1.14 µg/mL and the EC99 was 10.6 µg/mL. This compound gave an MIC in assay [3] of 12.5 µg/mL. Further, in assay [4], the MBC is 3.13 µg/mL and the MIC came out at 0.78 µg/mL. Besides, in assay [5], the Ratio is recorded as 0.091.

Consider `O=C(N/N=C/c1ccccc1F)c1ccncc1`, for which, in assay [1], the Selective index turned out to be 168. Moreover, in assay [2], it took 0.05 µg/mL (≈ 0.206 µM) to reach the 90% level (EC90) and the EC99 was determined as 0.14 µg/mL. Moreover, in assay [3], the MIC is 0.05 µg/mL (≈ 0.206 µM). This compound gave an MIC in assay [4] of 0.05 µg/mL (≈ 0.206 µM). In assay [5], the Ratio was determined as 1.

Consider `C/C(=N\NC(=O)c1ccncc1)c1cccc(/C(C)=N/NC(=O)c2ccncc2)n1`, for which, in assay [1], the Selective index is 320.5. In assay [2], the concentration for an effect of 90% (EC90) worked out at 0.09 µg/mL (≈ 0.224 µM) and the 99% effect concentration (EC99) came to 0.29 µg/mL. In assay [3], this compound returned an MIC of 0.39 µg/mL (≈ 0.972 µM). In assay [4], this compound registered an MBC of 12.5 µg/mL (≈ 31.1 µM) and an MIC of no more than 0.2 µg/mL. In addition, the Ratio in assay [5] is reported as 0.23.

Turning to `C/C(=N\NC(=O)c1ccncc1)C(F)(F)F`, the Selective index in assay [1] is given as 1160. Further, in assay [2], it took 0.046 µg/mL (≈ 0.199 µM) to reach the 90% level (EC90) and the EC99 turned out to be 0.41 µg/mL. The compound also yielded an MIC in assay [3] of 0.1 µg/mL (≈ 0.433 µM). In assay [4], this compound came in with an MBC of 0.2 µg/mL (≈ 0.865 µM) and an MIC of 0.05 µg/mL (≈ 0.216 µM). For the same compound, in assay [5], the Ratio was found to be 0.46.
